The test system of test [1] is TNF-α secretion in BV-2 cells. Kind of test: TNF-α ELISA of culture medium after LPS. Particulars: 10 μM. In kind it is cell-based, murine. As to the method:
BV-2 and RAW264.7 cells were treated with compounds in the absence or presence of LPS (100 ng/ml). After 24 h, TNF-α levels in the culture medium were measured using a TNF-α ELISA kit (R&D Systems; DY410) according to the manufacturer’s protocol. Briefly, capture antibodies were coated on 96-well Maxisorp Nunc-Immuno plates (Thermo; #439454) for 1 h and washed with PBS containing 0.05% Tween-20 (PBST) three times. The plates were blocked with 1% BSA-PBS for 1 h and washed with PBST three times. Culture medium was added to the 96-well plate for 1 h and washed with PBST three times. Biotinylated detection antibody was added to the 96-well plate for 1 h and washed with PBST three times. Streptavidin–horseradish peroxidase (HRP) was added to the plate for 20 min and washed with PBST three times. After 20 min of incubation with TMB substrate (Thermo; #002023), TMB oxidation was stopped by adding 2 N H2SO4. The absorbance at 450 nm, 540 nm, and 570 nm was measured using a microplate reader (BioTek; Synergy). The following formula was used to calculate the net signal: OD450nm–(OD540nm + OD570nm)/2.
Fig. 2 SB26019 has anti-inflammatory activity via the accumulation of tubulin monomers. SB26019 (10 μM for 6 h) regulated the mRNA levels (a) and protein levels (b) of downstream genes of NF-κB in BV-2 murine microglial cells more efficiently than the other known tubulin modulators (n = 3). c Both tubulin modulators (10 μM for 6 h) and transient Flag-tagged α-tubulin overexpression increased the total amount of tubulin monomers. d Quantification of the amount of tubulin polymer vs. monomer in (c). Tubulin modulators (10 μM for 6 h) and transient Flag-tagged α-tubulin overexpression proportionally regulated the NF-κB signaling pathway at the mRNA (e) and protein levels f in RAW264.7 murine macrophage cells (n = 3). Data are presented as the mean ± SD (ns, not significant, p > 0.05; *p < 0.05; **p < 0.01; ***p < 0.001).
On the technique in general: An ELISA detects its analyte on a solid surface through an enzyme-linked reagent.

The test system of a further test is IκB in J774A.1 cells. Kind of test: Western blot of IκB. In kind it is cell-based. Particulars: murine macrophage cells; inhibited by MG132 pretreatment. How it is done:
The proteome was analyzed by SDS‒PAGE and transferred to PVDF membranes (Bio-Rad; BR162-0177). The membranes were blocked with 2% BSA in Tris-buffered saline containing 0.1% Tween-20 (TBST) for 1 h. To detect the desired proteins, the membranes were incubated overnight at 4 °C with the primary antibodies—1:1000 dilution of α-tubulin (CST; #3873), β-tubulin (CST; #2146), IκB (CST; #4814), caspase-1 (CST; #24232), cleaved caspase-1 (CST; #89332), IL-1β (CST; #31202), cleaved IL-1β (CST; #63124), acetylated α-tubulin (CST; #5335), p65 (Abcam; ab16502), FLAG (Abcam; ab49763); and 1:2,000 dilution of GAPDH (CST; #2118), β-actin (CST; #4970), and LMNB1 (Abcam; ab16048). After washing with TBST, the resulting membranes were exposed to HRP-conjugated secondary antibody—1:5000 dilution of anti-rabbit (CST; #7074) and anti-mouse (CST; #7076)—for 1 h at room temperature. After washing with TBST, the membranes were incubated with an enhanced chemiluminescence (ECL) prime kit (Cytiva; RPN2232). Chemiluminescent signals from the desired proteins were detected using ChemiDoc. […]
To understand the inhibitory mechanism of p65 nuclear translocation by SB26019, the expression levels of p65, IκB, and tubulin monomers were monitored upon SB26019 treatment in murine macrophage cells. […] To test this hypothesis, we monitored protein‒protein interactions among p65, IκB, and tubulin with immunoprecipitation. […]

As for `COc1ccc2c(c1O)OC(C)(C)C=C2c1cccc2c1oc1ccccc12` [Compound 8], in test [1], the “TNF-α levels compared to that of the DMSO control” value is given as less than 50%. The IκB degradation result with IκB in J774A.1 cells is “induced IκB degradation in a time- and dose-dependent manner”.

Source of the values: paper PMC9743128, “Phenotype-based screening rediscovered benzopyran-embedded microtubule inhibitors as anti-neuroinflammatory agents by modulating the tubulin–p65 interaction” (Experimental & Molecular Medicine, 2022).
